The source of these data is patent US20240199882A1, “THIENYL-DIBENZOAZEPINES AND THEIR DERIVATIVES AS DONORS FOR XANTHENE-BASED SHORT-WAVE INFRARED (SWIR) DYES” (Mississippi State University, priority 2022, published 2024).

Molecules are shown by their SMILES.

Data set [1] in a line: Photophysical properties of the dyes in dichloromethane. Type of data set: physicochemical. To be noted: for QY / Stokes Shift / ε / λabs / λem: in dichloromethane (DCM). From the text:
The quantum yield (QY) of the dyes decreased as the absorption wavelength increased, which is common to these dyes.

Data set [2] is described as follows: Absorbance of DSPE-PEG encapsulated and co-encapsulated dyes. The class given is physicochemical. To be noted: co-encapsulated in DSPE-PEG (rNP-NO) versus separate. From the text: The SCR-NO and IR-1061 were encapsulated using DSPE-PEG (a common phospholipids-polymer conjugate) to give NP-SCR-NO and NP-IR-1061, respectively. […] However, when the components were co-encapsulated (rNP-NO, ratiometric NP for NO), there was observed a favorable ˜100 nm red-shift of the SCR-NO λabs into the SWIR region (FIG. 3A). The corresponding change for IR-1061 was minimal (1 nm).

On to `CCOC(=O)c1ccccc1C1=c2cc/c(=c3/cc4c(s3)=CC(=[N+]3c5ccccc5C=Cc5ccccc53)S4)cc2Oc2cc(-c3cc4sc(N5c6ccccc6C=Cc6ccccc65)cc4s3)ccc21` [SCR-2], for which, in data set [1], the absorption maxima was found to be 950, the QY worked out at 0.036%, the “Stokes Shift” value turned out to be 150 and the ε is recorded as 1.24 (M^−1cm^−1) × 10^5. In data set [1], this molecule yielded a λabs of 950 nm and a λem of 1100 nm.
On to `ClC1=C(/C=C/c2cc(-c3ccccc3)[s+]c(-c3ccccc3)c2)CCC/C1=C/C=C1C=C(c2ccccc2)SC(c2ccccc2)=C1.F[B-](F)(F)F` [IR-1061], for which, in data set [2], the “red-shift / change of λabs” value amounted to 1 nm.
`CCOC(=O)c1ccccc1C1=c2cc/c(=C3/C=CC(=[N+]4c5ccccc5C=Cc5ccccc54)S3)cc2Oc2cc(-c3ccc(N4c5ccccc5C=Cc5ccccc54)s3)ccc21` [SCR-1]: in data set [1], the absorption maxima is 840, the QY stood at 0.31%, the “Stokes Shift” value is on record as 110 and the ε was 1.20 (M^−1cm^−1) × 10^5. Also, in data set [1], the λabs is reported as 840 nm and the λem is on record as 950 nm. The “PA brightness value (EC×(1−QY))” value in data set [1] (calculated value) was 82800 M⁻¹ cm⁻¹.
Consider `CCOC(=O)c1ccccc1C1=c2cc/c(=c3/cc/c(=C4\C=CC(=[N+]5c6ccccc6C=Cc6ccccc65)S4)s3)cc2Oc2cc(-c3ccc(-c4ccc(N5c6ccccc6C=Cc6ccccc65)s4)s3)ccc21` [SCR-3], for which, in data set [1], the absorption maxima is 1040, the QY came to 0.016%, the “Stokes Shift” value is on record as 220 and the ε is reported as 0.80 (M^−1cm^−1) × 10^5. In data set [1], this molecule displayed a λabs of 1040 nm and a λem of 1260 nm.
